Laboratory results as given in PubChem BioAssay (NCI).
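Test compounds were applied to cells in 96-well plates for 48 hours at 5 doses. TGI: total growth inhibition.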

Key:
Assay in all cases: NCI anticancer screen, dose series, 48 h
[1] = system: 786-0 renal
[2] = system: A498 renal
[3] = system: A549 NSCLC
[4] = system: ACHN renal
[5] = system: BT-549 breast
[6] = system: CAKI-1 renal
[7] = system: CCRF-CEM leukemia
[8] = system: COLO 205 colon
[9] = system: DU-145 prostate
[10] = system: EKVX NSCLC
[11] = system: HCC-2998 colon
[12] = system: HCT-116 colon
[13] = system: HCT-15 colon
[14] = system: HL-60(TB) leukemia
[15] = system: HOP-62 NSCLC
[16] = system: HOP-92 NSCLC
[17] = system: HS 578T breast
[18] = system: HT29 colon
[19] = system: IGROV1 ovarian
[20] = system: K-562 leukemia
[21] = system: KM12 colon
[22] = system: LOX IMVI melanoma
[23] = system: M14 melanoma
[24] = system: MALME-3M melanoma
[25] = system: MCF7 breast
[26] = system: MDA-MB-231 breast
[27] = system: MDA-MB-435
[28] = system: MDA-N
[29] = system: MOLT-4 leukemia
[30] = system: NCI-H226 lung
[31] = system: NCI-H23 lung
[32] = system: NCI-H460 lung
[33] = system: NCI-H522 lung
[34] = system: NCI/ADR-RES ovarian
[35] = system: OVCAR-3 ovarian
[36] = system: OVCAR-4 ovarian
[37] = system: OVCAR-5 ovarian
[38] = system: OVCAR-8 ovarian
[39] = system: PC-3 prostate
[40] = system: RPMI-8226 leukemia
[41] = system: RXF 393 renal
[42] = system: SF-268 CNS
[43] = system: SF-295 CNS
[44] = system: SF-539 CNS
[45] = system: SK-MEL-2 melanoma
[46] = system: SK-MEL-28 melanoma
[47] = system: SK-MEL-5 melanoma
[48] = system: SK-OV-3 ovarian
[49] = system: SN12C renal
[50] = system: SNB-19 CNS
[51] = system: SNB-75 CNS
[52] = system: SR leukemia
[53] = system: SW-620 colon
[54] = system: T-47D breast
[55] = system: TK-10 renal
[56] = system: U251 CNS
[57] = system: UACC-257 melanoma
[58] = system: UACC-62 melanoma
[59] = system: UO-31 renal

Measured: TGI

O=C(/C=C/NC(=O)OCc1ccccc1)OCc1ccccc1
> 100 µM: all assays above
